Measurements as given in patent US11052154B2, “Ras protein degradation inducing molecule and pharmaceutical composition” (Tokyo University of Science Foundation, priority 2016, dated 2021).

Legend:
[1] = molecular target: T1, G12D mutant K-Ras protein (Homo sapiens, UniProt P01116, G12D); experiment: Degradation (knockdown) of G12D mutant K-Ras protein forcibly expressed in HeLa cells, FACS analysis; assay type: cell-based
T1 construct: expressed in transfected cells; host or cells: HeLa
Protocol: HeLa cells into which the plasmid had been introduced were seeded in a 24-well plate at a cell density of 4×10^4 cells/well, and then cultured under conditions of 37° C. and 5 vol % CO2 for 40 hours.
DMSO was used as a control.

[2] = tested on: HeLa cells; experiment: Apoptosis induction in HeLa cells, FACS analysis (Annexin V/PI); assay type: cell-based, human; conditions: HeLa cells expressing wild-type K-Ras, 24 hours after addition; FIGS. 6A, 7A
Protocol: (§1) In Example 7, apoptosis induction in a case where TUS-007, Ras-SOS, or Ras-SOS-NH2 was added to HeLa cells or SW1990 cells (human pancreatic cancer cells) had been added was evaluated by the FACS analysis. It is noted that in HeLa cells, the wild-type K-Ras protein (K-Ras-WT) is expressed, and in SW1990 cells, the G12D mutant K-Ras protein (K-Ras-G12D) is expressed.
(§2) HeLa cells or SW1990 cells were seeded in a 24-well plate at a cell density of 8×10^4 cells/well, and then cultured under conditions of 37° C. and 5 vol % CO2 for 16 hours.
(§3) After 16 hours from cell seeding, TUS-007, Ras-SOS, or Ras-SOS-NH2 were added to HeLa cells or SW1990 cells as follows. As a medium, a serum-free medium (37° C.) in which 1 mass % L-glutamine solution (Sigma-Aldrich) was added to D-MEM (high D-glucose, phenol red, sodium pyruvate (Wako Pure Chemical Industries, Ltd.)) was used. It is noted that the L-glutamine solution was added immediately before use. A DMSO solution containing TUS-007, Ras-SOS, or Ras-SOS-NH2 was mixed with the medium so that the concentration of DMSO was 1 vol %, and added to each well at 500 μL/well, and cultured under conditions of 37° C. and 5 vol % CO2. As a control, DMSO was used.
(§4) The medium was removed 24 hours after addition of TUS-007, Ras-SOS, or Ras-SOS-NH2, and then PBS was added to wash the cells. After removing PBS, trypsin (0.25 w/v % trypsin-1 mmol/L EDTA⋅4 Na solution with phenol red) (Wako Pure Chemical Industries, Ltd.) at 37° C. was added to each well at 200 μL/well, and cultured under conditions of 37° C. and 5 vol % CO2 for 1 minute. […]
(§5) A BD FACSCanto™ II (BD Biosciences) was used for flow cytometry. […] The proportion of Annexin V-positive and PI-negative cells was calculated using an analysis software FlowJo™ (TOMY Digital Biology Co., Ltd.), and the proportion was defined as a proportion of apoptosis cells.
(§6) In Example 8, apoptosis induction in a case where TUS-007, Ras-SOS-NH2, or erlotinib as an anticancer agent (EGFR inhibitor) was added to HeLa cells or SW1990 cells was evaluated by FACS analysis as in Example 7.

[3] = tested on: SW1990 cells; experiment: Apoptosis induction in SW1990 cells, FACS analysis (Annexin V/PI); assay type: cell-based, human; conditions: SW1990 cells expressing G12D mutant K-Ras, 24 hours after addition; FIGS. 6B, 7B
Protocol: as §1, §2, §3, §4, §5, §6

[4] = Acute toxicity, single oral dose in Jcl:ICR mice; assay type: in vivo, mouse
Protocol: Acute toxicity when TUS-007 was orally administered to Jcl:ICR mice (8 weeks old, female) (CLEA Japan, Inc.) in a single dose of 80 mg/kg body weight, 300 mg/kg body weight, or 1000 mg/kg body weight was evaluated.

T1 sequence (P01116 1-188 isoform P01116-2 G12D): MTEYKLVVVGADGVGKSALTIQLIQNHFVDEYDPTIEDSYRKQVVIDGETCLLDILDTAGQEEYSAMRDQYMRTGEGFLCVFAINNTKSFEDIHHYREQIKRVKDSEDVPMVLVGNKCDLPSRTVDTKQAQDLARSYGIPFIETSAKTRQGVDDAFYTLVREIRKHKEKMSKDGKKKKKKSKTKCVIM

## CCC(C)[C@H](NC(=O)CCCCCCNC(=O)[C@H](CC(C)C)NC(=O)CNC(=O)c1cc(Cl)ccc1Cl)C(=O)Nc1ccc2[nH]c(Cc3c[nH]c4ccccc34)nc2c1 (stereo in doubt) [TUS-007]
[1]; HeLa cells, MLN2238 co-added, compared with TUS-007 alone, FIG. 3
  degradation of the G12D mutant K-Ras protein when both TUS-007 and MLN2238 were added: G12D mutant and G12V mutant K-Ras protein degradation was inhibited
[1]; HeLa cells, vs control (DMSO), FIG. 3
  degradation (knockdown) of the G12D mutant K-Ras protein (shift of GFP/DsRed ratio graph): degradation of the G12D mutant and the G12V mutant K-Ras protein was induced
[1]; from the results of FIGS. 1 and 3
  comparison of degradation induction among wild-type, G12D mutant and G12V mutant K-Ras protein: excellent in inducing the degradation of the G12D mutant K-Ras protein
[2]
  apoptosis induction (proportion of Annexin V-positive and PI-negative cells): apoptosis was induced in a concentration-dependent manner
[3]
  apoptosis induction (proportion of Annexin V-positive and PI-negative cells): the effect of the apoptosis by TUS-007 was high at the same level as in the case of the HeLa cells
[4]; single oral dose
  LD50: > 1000 mg/kg body weight
[4]; single oral dose of 80, 300 or 1000 mg/kg body weight
  general condition of the mice (acute toxicity): no abnormality in the general condition of the mice
